Experiments:
Assay type in all cases: cell-based
AXL = AXL (Homo sapiens (Human), UniProt P30530); experiment: AXL autophosphorylation ELISA in A-172 cells; settings: cellular, Gas6-stimulated, phospho-AXL ELISA
Procedure, shortened: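 A-172 glioblastoma cells, serum-starved 24 h, got 8-point compound dilutions (0.3% DMSO) for 1 h, then 1 μg/mL human Gas6 for 15 min. Phospho-AXL in lysates was quantified by ELISA against a standard, normalized between DMSO and reference-inhibitor controls; IC50 by 4-parameter logistic fit.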

KDR = KDR (Homo sapiens (Human), UniProt P35968); experiment: KDR autophosphorylation ELISA in HUVEC cells; settings: cellular, VEGF165-stimulated, phospho-KDR ELISA
Procedure, shortened: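 Serum-starved (24 h) HUVECs were pre-treated with compound (8-point dose curve, 0.3% DMSO final) for 1 h, then stimulated with 100 ng/mL human VEGF165 for 5 min. Lysate phospho-KDR was quantified by ELISA against a phospho-KDR standard. IC50 came from a 4-parameter logistic fit, normalized to stimulated-DMSO (100%) and unstimulated (0%) controls.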

Met = Met (Homo sapiens (Human), UniProt P08581); experiment: Met autophosphorylation ELISA in PC-3 cells; settings: cellular, HGF-stimulated, phospho-Met ELISA, read-out: c-Met IC50
Procedure, shortened: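 Serum-starved PC-3 cells treated 1 h with compound (8-point series, 0.3% DMSO), then stimulated 10 min with 100 ng/mL HGF. Phospho-Met (panTyr) quantified in lysates by sandwich ELISA; IC50 from 4-parameter logistic fit against DMSO and reference-inhibitor controls.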

Mer = Mer (Homo sapiens (Human), UniProt Q12866); experiment: Mer autophosphorylation ELISA in transient transfected 293A cells; settings: cellular, MERTK-transfected 293A cells, phospho-Mer ELISA
Experimental: 293A cells (Thermo Fisher #R70507) were seeded at 1.5×10^6 cells/well onto 100 mm dish (Greiner #664169), in DMEM (Thermo Fisher #11995-040) containing 10% FBS (Thermo Fisher #26140-079), 1% MEM NEAA (Thermo Fisher #11140-050), 1% GlutaMax (Thermo Fisher #35050-061), and 1% Penicillin Streptomycin (Thermo Fisher #15140-122). 293A cells were incubated at 37° C., 5% CO2 for 24 h and then transfected with 6 μg MERTK DNA (Genecopoeia #EX-Z8208-M02) using TransIT LT1 transfection reagent (Mirus-Bio #MIR2305). After 24 h incubation, the transfected 293A cells were seeded at 1×10^5 cells/well onto 96-well plates (Corning #3904) in DMEM growth medium overnight. Test compounds were serially diluted to produce an 8-point dose curve in fresh serum-free medium to a final concentration of 0.3% DMSO (vehicle) and added to the cells and incubated for 1 h. Cells were then immediately lysed with 150 μL of cold IX lysis buffer [20 mM Tris, 137 mM sodium chloride, 2 mM EDTA, 10% glycerol, 1% NP-40 alternative, 1 mM activated sodium orthovanadate, 1 mM PefaBloc SC (Sigma-Aldrich #11429868001), protease/phosphatase inhibitor tablet (Thermo Fisher #A32959)]. Lysates were clarified by centrifugation and 50 μL/well added into the human phospho-Mer DuoSet IC ELISA (R&D Systems #DYC2579-2). Assay was performed according to manufacturer's instructions and sample phospho-Mer concentrations were extrapolated using human phospho-Mer control (R&D Systems #841793) as a standard. Positive control wells (100% activity) contained DMSO-treated cell lysates. Negative control wells (0% activity) contained reference inhibitor-treated cell lysates. IC50 values were calculated by nonlinear regression analysis using a 4-parameter logistic curve fit in ActivityBase XE (IDBS).

Sequence of Mer (Q12866 21-999): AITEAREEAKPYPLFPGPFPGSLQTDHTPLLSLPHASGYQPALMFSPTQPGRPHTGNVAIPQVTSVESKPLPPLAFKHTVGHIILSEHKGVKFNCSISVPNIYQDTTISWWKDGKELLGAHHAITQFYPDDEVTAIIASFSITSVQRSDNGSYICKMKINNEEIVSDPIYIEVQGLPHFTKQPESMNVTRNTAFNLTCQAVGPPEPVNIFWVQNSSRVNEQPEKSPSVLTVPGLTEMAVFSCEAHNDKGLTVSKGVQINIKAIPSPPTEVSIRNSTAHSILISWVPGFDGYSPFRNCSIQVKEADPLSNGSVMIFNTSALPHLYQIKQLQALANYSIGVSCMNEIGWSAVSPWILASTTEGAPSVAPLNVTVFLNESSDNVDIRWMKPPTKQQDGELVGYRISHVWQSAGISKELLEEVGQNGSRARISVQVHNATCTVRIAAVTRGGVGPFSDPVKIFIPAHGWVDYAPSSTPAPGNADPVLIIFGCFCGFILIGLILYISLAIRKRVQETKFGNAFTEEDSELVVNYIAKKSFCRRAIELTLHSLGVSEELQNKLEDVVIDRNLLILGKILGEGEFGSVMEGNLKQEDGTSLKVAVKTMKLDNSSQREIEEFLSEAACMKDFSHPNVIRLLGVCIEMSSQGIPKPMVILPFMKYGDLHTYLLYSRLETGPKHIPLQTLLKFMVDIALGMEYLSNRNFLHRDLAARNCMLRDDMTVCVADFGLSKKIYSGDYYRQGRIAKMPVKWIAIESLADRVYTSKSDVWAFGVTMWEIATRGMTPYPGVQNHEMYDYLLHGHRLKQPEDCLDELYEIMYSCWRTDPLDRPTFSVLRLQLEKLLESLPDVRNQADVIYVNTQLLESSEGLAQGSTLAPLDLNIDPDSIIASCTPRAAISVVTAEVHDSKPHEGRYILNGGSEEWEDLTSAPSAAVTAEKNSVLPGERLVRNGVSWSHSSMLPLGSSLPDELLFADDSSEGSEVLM
Sequence of Met (P08581 25-1390): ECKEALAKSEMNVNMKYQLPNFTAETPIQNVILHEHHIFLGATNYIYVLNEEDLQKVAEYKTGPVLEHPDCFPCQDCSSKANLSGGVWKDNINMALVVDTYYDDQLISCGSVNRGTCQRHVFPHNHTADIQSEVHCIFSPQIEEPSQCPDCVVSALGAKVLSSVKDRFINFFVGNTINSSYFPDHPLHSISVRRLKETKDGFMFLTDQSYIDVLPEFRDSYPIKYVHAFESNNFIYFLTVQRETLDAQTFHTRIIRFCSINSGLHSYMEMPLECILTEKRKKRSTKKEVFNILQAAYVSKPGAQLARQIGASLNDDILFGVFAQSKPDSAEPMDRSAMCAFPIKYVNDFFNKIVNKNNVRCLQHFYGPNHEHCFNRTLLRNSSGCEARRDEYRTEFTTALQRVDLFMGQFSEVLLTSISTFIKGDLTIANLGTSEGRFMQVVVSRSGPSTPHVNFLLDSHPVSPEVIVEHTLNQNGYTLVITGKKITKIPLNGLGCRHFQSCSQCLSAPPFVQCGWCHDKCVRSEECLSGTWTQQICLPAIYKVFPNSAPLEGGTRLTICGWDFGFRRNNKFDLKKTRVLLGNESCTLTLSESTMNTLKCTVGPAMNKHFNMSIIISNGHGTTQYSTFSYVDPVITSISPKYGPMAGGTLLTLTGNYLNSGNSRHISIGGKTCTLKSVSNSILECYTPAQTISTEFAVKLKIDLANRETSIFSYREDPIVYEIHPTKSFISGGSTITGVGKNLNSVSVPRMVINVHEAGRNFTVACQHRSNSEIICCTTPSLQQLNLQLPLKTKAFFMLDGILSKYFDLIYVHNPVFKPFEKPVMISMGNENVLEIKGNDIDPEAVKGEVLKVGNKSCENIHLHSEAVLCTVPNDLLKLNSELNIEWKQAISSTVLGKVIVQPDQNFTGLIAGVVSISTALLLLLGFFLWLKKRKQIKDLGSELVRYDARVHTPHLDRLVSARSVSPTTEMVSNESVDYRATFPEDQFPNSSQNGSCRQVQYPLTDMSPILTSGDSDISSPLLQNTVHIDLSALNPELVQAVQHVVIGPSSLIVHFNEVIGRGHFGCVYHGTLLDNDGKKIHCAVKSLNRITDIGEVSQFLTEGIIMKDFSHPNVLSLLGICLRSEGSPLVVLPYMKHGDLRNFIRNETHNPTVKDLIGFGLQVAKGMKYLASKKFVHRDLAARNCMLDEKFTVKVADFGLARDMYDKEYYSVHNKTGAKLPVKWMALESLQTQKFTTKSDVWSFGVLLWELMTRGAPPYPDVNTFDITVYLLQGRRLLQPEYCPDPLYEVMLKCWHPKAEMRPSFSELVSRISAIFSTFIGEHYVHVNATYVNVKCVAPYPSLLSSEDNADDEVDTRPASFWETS
Sequence of KDR (P35968 20-1356): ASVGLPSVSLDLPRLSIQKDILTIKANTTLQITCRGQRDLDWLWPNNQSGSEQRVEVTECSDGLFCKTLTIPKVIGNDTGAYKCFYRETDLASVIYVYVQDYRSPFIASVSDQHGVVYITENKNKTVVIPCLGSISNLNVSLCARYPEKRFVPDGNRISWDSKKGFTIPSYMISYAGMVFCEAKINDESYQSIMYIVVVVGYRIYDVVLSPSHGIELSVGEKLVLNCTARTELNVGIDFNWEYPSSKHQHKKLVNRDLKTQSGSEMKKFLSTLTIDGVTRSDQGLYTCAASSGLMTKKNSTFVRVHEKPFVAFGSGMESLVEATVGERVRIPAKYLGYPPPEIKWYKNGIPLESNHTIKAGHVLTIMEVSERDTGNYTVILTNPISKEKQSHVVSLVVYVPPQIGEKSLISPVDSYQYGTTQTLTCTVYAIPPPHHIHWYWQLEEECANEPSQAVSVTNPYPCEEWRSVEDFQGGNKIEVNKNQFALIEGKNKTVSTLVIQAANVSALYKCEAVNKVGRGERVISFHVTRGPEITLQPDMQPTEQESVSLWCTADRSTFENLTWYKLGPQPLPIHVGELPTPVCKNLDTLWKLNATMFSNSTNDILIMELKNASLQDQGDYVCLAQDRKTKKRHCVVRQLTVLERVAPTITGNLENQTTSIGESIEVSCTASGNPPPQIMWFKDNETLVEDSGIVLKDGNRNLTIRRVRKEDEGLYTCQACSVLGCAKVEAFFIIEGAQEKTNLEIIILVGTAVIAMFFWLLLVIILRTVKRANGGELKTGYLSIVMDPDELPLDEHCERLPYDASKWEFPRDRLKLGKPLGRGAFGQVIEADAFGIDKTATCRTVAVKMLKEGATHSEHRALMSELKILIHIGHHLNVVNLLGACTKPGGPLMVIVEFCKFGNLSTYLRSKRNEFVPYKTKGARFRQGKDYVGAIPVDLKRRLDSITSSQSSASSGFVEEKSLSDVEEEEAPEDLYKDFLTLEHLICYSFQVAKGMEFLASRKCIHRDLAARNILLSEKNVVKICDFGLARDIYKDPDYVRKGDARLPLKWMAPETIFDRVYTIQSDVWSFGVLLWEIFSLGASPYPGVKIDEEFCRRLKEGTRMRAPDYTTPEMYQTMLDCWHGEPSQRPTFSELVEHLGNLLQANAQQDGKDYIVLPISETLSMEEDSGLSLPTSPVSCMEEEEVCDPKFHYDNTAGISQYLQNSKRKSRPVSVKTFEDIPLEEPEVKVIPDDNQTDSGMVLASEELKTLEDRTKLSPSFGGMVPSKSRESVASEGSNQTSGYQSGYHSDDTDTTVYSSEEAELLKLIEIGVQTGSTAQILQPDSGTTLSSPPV
Sequence of AXL (P30530 26-894): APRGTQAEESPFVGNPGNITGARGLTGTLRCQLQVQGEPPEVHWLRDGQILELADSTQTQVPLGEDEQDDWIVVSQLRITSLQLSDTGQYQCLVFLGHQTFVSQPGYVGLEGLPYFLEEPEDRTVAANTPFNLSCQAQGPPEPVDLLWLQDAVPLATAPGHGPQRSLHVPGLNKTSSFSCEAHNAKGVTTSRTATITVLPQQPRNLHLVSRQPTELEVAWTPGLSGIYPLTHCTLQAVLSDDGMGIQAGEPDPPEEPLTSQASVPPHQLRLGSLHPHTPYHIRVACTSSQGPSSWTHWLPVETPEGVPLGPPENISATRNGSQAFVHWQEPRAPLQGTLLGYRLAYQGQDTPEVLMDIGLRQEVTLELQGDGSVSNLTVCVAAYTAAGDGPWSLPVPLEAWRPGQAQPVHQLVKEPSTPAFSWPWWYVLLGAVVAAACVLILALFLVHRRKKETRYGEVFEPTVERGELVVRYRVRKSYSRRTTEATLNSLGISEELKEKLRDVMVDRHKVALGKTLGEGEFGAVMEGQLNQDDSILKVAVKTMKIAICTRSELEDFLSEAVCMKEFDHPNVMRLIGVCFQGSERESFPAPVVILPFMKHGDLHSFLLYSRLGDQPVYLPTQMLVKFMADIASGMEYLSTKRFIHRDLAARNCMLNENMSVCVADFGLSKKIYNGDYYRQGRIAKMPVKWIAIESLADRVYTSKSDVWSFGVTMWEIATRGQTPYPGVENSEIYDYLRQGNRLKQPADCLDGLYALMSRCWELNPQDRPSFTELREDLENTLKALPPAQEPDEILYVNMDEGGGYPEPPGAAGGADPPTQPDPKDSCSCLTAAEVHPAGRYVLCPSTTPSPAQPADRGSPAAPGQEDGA

Row | SMILES | IC50 (AXL) | IC50 (KDR) | IC50 (Met) | IC50 (Mer)
1 | COCCOc1cc2ncnc(Oc3ccc(NC(=O)C4(C(=O)Nc5ccc(F)cc5)CC4)cc3F)c2nc1OC [Compound 79, 1-N′-[3-fluoro-4-[6-methoxy-7-(2-methoxyethoxy)pyrido[3,2-d]pyrimidin-4-yl]oxy-phenyl]-1-N-(4-fluorophenyl)cyclopropane-1,1-dicarboxamide] | ≤ 0.01 µM | ≤ 0.01 µM | 0.01 to 0.1 µM | ≤ 0.01 µM
2 | COCCOc1cc2ncnc(Oc3ccc(NC(=O)C4(C(=O)Nc5ccc(F)cc5)CC4)c(F)c3)c2nc1OC [Compound 81, 1-N′-[2-fluoro-4-[6-methoxy-7-(2-methoxyethoxy)pyrido[3,2-d]pyrimidin-4-yl]oxy-phenyl]-1-N-(4-fluorophenyl)cyclopropane-1,1-dicarboxamide] | ≤ 0.01 µM | 0.01 to 0.1 µM | 0.01 to 0.1 µM | ≤ 0.01 µM
3 | COCCOc1cc2ncnc(Oc3cc(F)c(NC(=O)C4(C(=O)Nc5ccc(F)cc5)CC4)cc3F)c2nc1OC [Compound 83, 1-N′-[2,5-difluoro-4-[6-methoxy-7-(2-methoxy-ethoxy)pyrido[3,2-d]pyrimidin-4-yl]oxyphenyl]-1-N-(4-fluorophenyl)cyclopropane-1,1-dicarboxamide] | ≤ 0.01 µM | ≤ 0.01 µM | 0.01 to 0.1 µM | ≤ 0.01 µM
4 | COCCOc1cc2nccc(Oc3ccc(NC(=O)C4(C(=O)Nc5ccc(F)cc5)CC4)cc3)c2nc1OC [Compound 149, 1-N′-(4-fluorophenyl)-1-N-[4-[[6-methoxy-7-(2-methoxyethoxy)-1,5-naphthyridin-4-yl]oxy]phenyl]cyclopropane-1,1-dicarboxamide] | ≤ 0.01 µM | ≤ 0.01 µM | 0.01 to 0.1 µM | ≤ 0.01 µM

The remaining lines, values ahead:

Row | IC50 (AXL) | IC50 (KDR) | IC50 (Met) | IC50 (Mer) | SMILES
5 | ≤ 0.01 µM | 0.01 to 0.1 µM | 0.01 to 0.1 µM | ≤ 0.01 µM | COc1nc2c(Oc3c(F)cc(NC(=O)C4(C(=O)Nc5ccc(F)cc5)CC4)cc3F)ncnc2cc1OCCCN1CCOCC1 [Compound 76, 1-N′-[3,5-difluoro-4-[6-methoxy-7-(3-morpholin-4-ylpropoxy)pyrido[3,2-d]pyrimidin-4-yl]oxyphenyl]-1-N-(4-fluorophenyl)cyclo-propane-1,1-dicarboxamide]
6 | 0.01 to 0.1 µM | ≤ 0.01 µM | 0.01 to 0.1 µM | ≤ 0.01 µM | COCCOc1cc2ncnc(Oc3ccc(NC(=O)C4(C(=O)Nc5ccc(F)cc5)CC4)cc3Cl)c2nc1OC [Compound 80, 1-N′-[3-chloro-4-[6-methoxy-7-(2-methoxyethoxy)pyrido[3,2-d]pyrimidin-4-yl]oxy-phenyl]-1-N-(4-fluorophenyl)cyclo-propane-1,1-dicarboxamide]
7 | ≤ 0.01 µM | ≤ 0.01 µM | 0.01 to 0.1 µM | 0.01 to 0.1 µM | COCCOc1cc2ncnc(Oc3ccc(NC(=O)C4(C(=O)Nc5ccc(F)cc5)CC4)c(F)c3F)c2nc1OC [Compound 82, 1-N′-[2,3-difluoro-4-[6-methoxy-7-(2-methoxy-ethoxy)pyrido[3,2-d]pyrimidin-4-yl]oxyphenyl]-1-N-(4-fluorophenyl)cyclo-propane-1,1-dicarboxamide]
8 | 0.01 to 0.1 µM | 0.1 to 0.3 µM | 0.1 to 0.3 µM | 0.1 to 0.3 µM | Cn1cc(-c2cnc3c(Oc4ccc(NC(=O)C5(C(=O)Nc6ccc(F)cc6)CC5)cc4)ncnc3c2)cn1 [Compound 129, 1-N′-(4-fluorophenyl)-1-N-[4-[7-(1-methylpyrazol-4-yl)pyrido[3,2-d]pyrimidin-4-yl]oxyphenyl]cyclo-propane-1,1-dicarboxamide]
9 | 0.01 to 0.1 µM | ≤ 0.01 µM | 0.01 to 0.1 µM | 0.01 to 0.1 µM | Cn1cc(-c2cc3ncnc(Oc4ccc(NC(=O)C5(C(=O)Nc6ccc(F)cc6)CC5)cc4)c3cn2)cn1 [Compound 130, 1-N′-(4-fluorophenyl)-1-N-[4-[7-(1-methylpyrazol-4-yl)pyrido[4,3-d]pyrimidin-4-yl]oxyphenyl]cyclopropane-1,1-dicarboxamide]
10 | ≤ 0.01 µM | ≤ 0.01 µM | ≤ 0.01 µM | ≤ 0.01 µM | COCCOc1cc2nccc(Oc3ccc(NC(=O)C4(C(=O)Nc5ccc(F)cc5)CC4)cc3F)c2nc1OC [Compound 150, 1-N′-[3-fluoro-4-[[6-methoxy-7-(2-methoxyethoxy)-1,5-naphthyridin-4-yl]oxy]phenyl]-1-N-(4-fluoro-phenyl)cyclopropane-1,1-dicarboxamide]
11 | 0.01 to 0.1 µM | ≤ 0.01 µM | 0.01 to 0.1 µM | 0.01 to 0.1 µM | COCCOc1cc2nccc(Oc3ccc(NC(=O)C4(C(=O)Nc5ccc(F)cc5)CC4)cc3Cl)c2nc1OC [Compound 151, 1-N′-[3-chloro-4-[[6-methoxy-7-(2-methoxyethoxy)-1,5-naphthyridin-4-yl]oxy]phenyl]-1-N-(4-fluoro-phenyl)cyclopropane-1,1-dicarboxamide]
